In ChEMBL document CHEMBL1201862, “PubChem BioAssay data set” (2004):
Activity calls are given as the source filed them.

Key:
[1] = tested on: BJ; experiment: growth inhibition of engineered Ras-driven BJ cells – cell-based, alamar blue fluorescence, cherrypicked samples, dose response (AID 2631); format: functional; settings: Homo sapiens;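 also: confirmatory dose-response assay in RAS-dependent BJ fibroblasts engineered with TERT, LT and ST, with cytotoxicity read by fluorescence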
[2] = viability of uninfected HEp-2 cells – cell-based, HTS, cytotoxicity control for RSV inhibitor project, dose response (AID 2410); format: functional; settings: human respiratory syncytial virus
[3] = molecular target: T1, Sentrin-specific protease 7 (Homo sapiens, UniProt Q9BQF6); experiment: inhibition of human SENP7 cleavage activity – biochemical, luminescence, SAR follow-up (AID 504497); format: functional
T1 sequence (Q9BQF6 whole entry): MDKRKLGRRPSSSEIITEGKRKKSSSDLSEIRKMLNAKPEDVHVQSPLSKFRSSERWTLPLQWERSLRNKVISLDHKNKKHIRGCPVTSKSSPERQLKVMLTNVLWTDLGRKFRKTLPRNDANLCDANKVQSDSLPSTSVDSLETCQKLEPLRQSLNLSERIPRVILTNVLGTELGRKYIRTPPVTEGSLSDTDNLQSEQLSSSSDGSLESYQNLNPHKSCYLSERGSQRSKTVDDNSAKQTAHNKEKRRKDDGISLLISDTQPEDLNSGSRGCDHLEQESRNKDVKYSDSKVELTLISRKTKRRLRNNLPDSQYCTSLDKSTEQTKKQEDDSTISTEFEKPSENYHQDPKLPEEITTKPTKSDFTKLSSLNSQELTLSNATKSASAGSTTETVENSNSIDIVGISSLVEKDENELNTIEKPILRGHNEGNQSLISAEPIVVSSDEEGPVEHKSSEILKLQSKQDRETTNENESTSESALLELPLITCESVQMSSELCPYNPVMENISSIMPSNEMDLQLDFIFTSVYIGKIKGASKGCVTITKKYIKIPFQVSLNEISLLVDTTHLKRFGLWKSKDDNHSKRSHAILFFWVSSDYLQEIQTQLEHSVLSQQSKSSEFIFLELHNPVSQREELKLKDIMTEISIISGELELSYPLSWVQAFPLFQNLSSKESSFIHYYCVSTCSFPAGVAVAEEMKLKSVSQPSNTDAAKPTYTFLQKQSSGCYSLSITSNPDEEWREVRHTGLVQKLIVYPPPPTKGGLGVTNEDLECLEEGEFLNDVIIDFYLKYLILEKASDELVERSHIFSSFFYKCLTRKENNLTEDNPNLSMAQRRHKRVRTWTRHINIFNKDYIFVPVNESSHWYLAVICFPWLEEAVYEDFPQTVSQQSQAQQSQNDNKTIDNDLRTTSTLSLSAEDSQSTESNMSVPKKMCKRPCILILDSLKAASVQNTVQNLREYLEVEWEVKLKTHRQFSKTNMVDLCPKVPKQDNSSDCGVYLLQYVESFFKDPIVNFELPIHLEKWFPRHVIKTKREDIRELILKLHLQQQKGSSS

[4] = molecular target: Serine/threonine-protein phosphatase PP1-alpha catalytic subunit (Homo sapiens, UniProt P62136); experiment: inhibition of protein phosphatase 1 activity – biochemical, fluorescence, dose response (AID 2394)
[5] = tested on: Vero; experiment: viability of Vero cells under compound – cytotoxicity control for flavivirus capping enzyme inhibitors (AID 588742); format: functional; settings: Chlorocebus sabaeus
[6] = molecular target: T2, Cysteine protease ATG4B (Homo sapiens, UniProt Q9Y4P1); format: functional;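 also: Fluorescence-based dose-response confirmation assay measuring inhibition of ATG4B activity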
T2 sequence (Q9Y4P1 whole entry): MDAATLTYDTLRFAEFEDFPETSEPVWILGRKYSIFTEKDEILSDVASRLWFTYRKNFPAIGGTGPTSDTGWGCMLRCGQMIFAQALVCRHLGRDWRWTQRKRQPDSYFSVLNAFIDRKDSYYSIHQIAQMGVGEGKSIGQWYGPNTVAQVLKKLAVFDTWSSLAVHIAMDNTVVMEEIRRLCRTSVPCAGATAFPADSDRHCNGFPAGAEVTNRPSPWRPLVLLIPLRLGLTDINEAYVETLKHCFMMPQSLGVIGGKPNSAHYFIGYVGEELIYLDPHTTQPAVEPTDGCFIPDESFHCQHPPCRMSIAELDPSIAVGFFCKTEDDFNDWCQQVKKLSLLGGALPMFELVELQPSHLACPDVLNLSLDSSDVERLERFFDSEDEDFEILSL

[7] = molecular target: T3, Streptokinase A (Streptococcus pyogenes serotype M1, UniProt P10520); experiment: viability-normalized secreted streptokinase activity reduction – plasminogen activation absorbance, OD405, dose response (AID 1914); format: functional, Streptococcus pyogenes M1 GAS;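 also: secreted streptokinase activity via plasminogen activation per viability signal from cell pellet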
T3 sequence (P10520 whole entry): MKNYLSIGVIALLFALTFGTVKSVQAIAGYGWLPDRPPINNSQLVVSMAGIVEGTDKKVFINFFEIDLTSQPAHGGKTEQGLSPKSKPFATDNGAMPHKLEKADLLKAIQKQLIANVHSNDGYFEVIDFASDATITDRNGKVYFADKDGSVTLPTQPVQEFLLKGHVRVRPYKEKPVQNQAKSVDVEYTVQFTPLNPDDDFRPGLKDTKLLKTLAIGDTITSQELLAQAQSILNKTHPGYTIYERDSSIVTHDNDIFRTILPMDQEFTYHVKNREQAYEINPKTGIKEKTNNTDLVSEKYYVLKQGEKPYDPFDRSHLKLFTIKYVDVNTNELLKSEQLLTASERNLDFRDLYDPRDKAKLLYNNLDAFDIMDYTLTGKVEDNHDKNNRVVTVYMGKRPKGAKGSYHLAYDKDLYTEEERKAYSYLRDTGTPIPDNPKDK

Sequence of Serine/threonine-protein phosphatase PP1-alpha catalytic subunit (P62136 whole entry): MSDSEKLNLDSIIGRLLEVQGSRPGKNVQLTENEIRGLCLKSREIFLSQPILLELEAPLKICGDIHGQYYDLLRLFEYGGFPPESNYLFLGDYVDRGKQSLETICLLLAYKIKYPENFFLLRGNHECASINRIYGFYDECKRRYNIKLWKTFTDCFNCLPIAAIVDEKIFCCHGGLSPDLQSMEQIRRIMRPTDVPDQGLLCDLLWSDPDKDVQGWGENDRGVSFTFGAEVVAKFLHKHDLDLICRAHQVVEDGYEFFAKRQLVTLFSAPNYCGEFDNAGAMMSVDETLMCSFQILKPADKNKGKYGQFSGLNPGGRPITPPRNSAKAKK

Question: With COC(=O)C[C@]1(C(=O)OC)CN(C#N)N(c2ccc(Cl)cc2)C12c1ccccc1-c1ccccc12 as the compound, how does the EC50 [1] read?
Answer: 1.07 µM (active)

Question: With O=C(Nc1ccc(C#Cc2ccccc2)cc1)C1CC1 as the compound, how does the CC50 [2] read?
Answer: 26.9 µM (active)

Question: And the IC50 [3]?
Answer: 3.28 µM (active)

Question: Which results are given for CCCCn1c(NC(=O)c2ccco2)c(C(=O)OCC)c2nc3ccccc3nc21?
Answer: IC50 [4]: 62.5 µM (not active); CC50 [5]: > 40 µM (active)

Question: Which IC50 [6] does the source give for Cc1ccccc1NC1=C/C(=N\S(=O)(=O)c2ccc(C(=O)O)cc2)c2ccccc2C1=O here?
Answer: 5.85 µM (active)

Question: Which EC50 [7] does the source give for COc1ccc(-c2cc(-c3ccc(C)cc3)[nH]n2)c(O)c1 here?
Answer: > 150 µM (not active)
